Source: patent US6362369B1, “Phthalic acid diamide derivatives fluorine-containing aniline compounds as starting material, agricultural and horticultural insecticides, and a method for application of the insecticides” (Nihon Nohyaku Co., Ltd., priority 1997, dated 2002)

Tests used:
Format in all cases: in vivo
[1] = system: common cutworm (Spodoptera Litura); assay: Insecticidal effect on common cutworm (Test Example 2); details: 500 ppm; cabbage leaf immersed; second-instar larvae of common cutworm; eight days after inoculation; 25° C.
Procedure, shortened: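 Insecticidal effect was rated from percent mortality of second-instar larvae exposed to air-dried treatment at 25° C for 8 days.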

[2] = system: diamondback moth (Plutella xylostella); assay: Insecticidal effect on diamondback moth (Test Example 1); details: diamondback moth; judged by the mortality criterion of Test Example 1
Procedure, shortened: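 Chinese cabbage seedlings carrying eggs laid by released adult moths were immersed in treatment, air-dried and held at 25° C. Hatched insects were counted six days after immersion, and mortality was calculated and scored against a fixed criterion. Three replicate groups of 10 insects were used.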

[3] = system: rice leafroller (Cnaphalocrocis medinalis); assay: Insecticidal effect on rice leafroller (Test Example 3); details: 500 ppm; rice lamina immersed; third-instar larvae of rice leafroller; four days after inoculation; 25° C., humidity 70%
Procedure, shortened: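 Groups of 10 third-instar larvae, in triplicate, are placed on air-dried lamina resting on wet filter paper. Incubation runs four days at 25° C with 70% humidity before survivors and dead are tallied.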

Structure (SMILES)	Insecticidal effect, Test Example 2 [1]	Insecticidal effect, Test Example 1 [2]	Insecticidal effect, Test Example 3 [3]
Cc1cc(OC(F)(F)C(F)OC(F)(F)F)ccc1NC(=O)c1cccc(Cl)c1C(=O)NC(C)C (stereo not drawn) [compound 149]	A (100)	A (100)	A (100)
Cc1cc(OC(F)F)c(Cl)cc1NC(=O)c1cccc(Cl)c1C(=O)NC(C)C [compound 150]	A (100)	A (100)	A (100)
Cc1cc(OC(F)(F)C(F)F)c(Cl)cc1NC(=O)c1cccc(Cl)c1C(=O)NC(C)C [compound 152]	A (100)	A (100)	A (100)
Cc1cc(Oc2c(F)c(F)c(F)c(F)c2F)ccc1NC(=O)c1cccc(Cl)c1C(=O)NC(C)C [compound 157]	A (100)	A (100)	A (100)
Cc1cc(Oc2ccc(C(F)(F)F)cn2)ccc1NC(=O)c1cccc(Cl)c1C(=O)NC(C)C [compound 158]	A (100)	A (100)	A (100)
Cc1cc(Oc2ncc(C(F)(F)F)cc2Cl)ccc1NC(=O)c1cccc(Cl)c1C(=O)NC(C)C [compound 159]	A (100)	A (100)	A (100)
CCOP(=O)(OCC)c1ccc(NC(=O)c2cccc(Cl)c2C(=O)NC(C)C)c(C)c1 [compound 161]	D (79-50)	A (100)	A (100)
CC(C)NC(=O)c1c(Cl)cccc1C(=O)Nc1ccc(OC(F)F)cc1C(F)(F)F [compound 163]	A (100)	A (100)	A (100)
CC(C)NC(=O)c1c(Cl)cccc1C(=O)Nc1ccc2oc(C(F)(F)F)nc2c1 [compound 165]	B (99-90)	A (100)	C (89-80)
CC(C)NC(=O)c1c(Cl)cccc1C(=O)Nc1ccc2c(c1)nc(C(F)(F)F)n2C [compound 167]	A (100)	A (100)	A (100)
Cc1ccccc1NC(=O)c1ccc(Cl)cc1C(=O)NC(C)C [compound 170]	D (79-50)	A (100)	B (99-90)
CC(C)NC(=O)c1cc(Cl)ccc1C(=O)Nc1ccc(OC(F)(F)F)cc1 [compound 172]	A (100)	A (100)	D (79-50)
CC(C)NC(=O)c1cc(Cl)ccc1C(=O)Nc1ccc(Cl)cc1Cl [compound 173]	D (79-50)	A (100)	D (79-50)
Cc1c(Cl)cccc1NC(=O)c1ccc(Cl)cc1C(=O)NC(C)C [compound 176]	D (79-50)	A (100)	A (100)
Cc1cc(Cl)ccc1NC(=O)c1ccc(Cl)cc1C(=O)NC(C)C [compound 177]	A (100)	A (100)	A (100)
Cc1cc(OC(F)F)ccc1NC(=O)c1ccc(Cl)cc1C(=O)NC(C)C [compound 180]	A (100)	A (100)	A (100)
CC(C)NC(=O)c1cccc(Cl)c1C(=O)Nc1ccc(C(F)(C(F)(F)F)C(F)(F)F)cc1 [compound 198]	C (89-80)	A (100)	A (100)
CC(C)NC(=O)c1cccc(Cl)c1C(=O)Nc1ccc(OC(F)(F)C(F)OC(F)(F)C(F)(F)C(F)(F)F)cc1 (stereo not drawn) [compound 201]	B (99-90)	A (100)	A (100)
CC(C)NC(=O)c1cccc(Cl)c1C(=O)Nc1ccc(Cl)cc1F [compound 212]	D (79-50)	A (100)	A (100)
Cc1cccc(NC(=O)c2c(Cl)cccc2C(=O)NC(C)C)c1C [compound 213]	A (100)	A (100)	A (100)
Cc1cc(Cl)ccc1NC(=O)c1c(Cl)cccc1C(=O)NC(C)C [compound 214]	A (100)	A (100)	A (100)

Structure (SMILES)	Insecticidal effect, Test Example 2 [1]	Insecticidal effect, Test Example 1 [2]	Insecticidal effect, Test Example 3 [3]
COc1ccc(NC(=O)c2c(Cl)cccc2C(=O)NC(C)C)c(C)c1C [compound 219]	D (79-50)	A (100)	A (100)
Cc1cc(C(F)(F)F)ccc1NC(=O)c1c(Cl)cccc1C(=O)NC(C)C [compound 221]	A (100)	A (100)	A (100)
Cc1cc(OC(F)(F)C(Cl)(Cl)Cl)ccc1NC(=O)c1c(Cl)cccc1C(=O)NC(C)C [compound 222]	B (99-90)	A (100)	A (100)
Cc1cc(C(F)(F)C(F)(F)F)ccc1NC(=O)c1c(Cl)cccc1C(=O)NC(C)C [compound 223]	A (100)	A (100)	A (100)
Cc1cc(C(F)(F)C(F)(F)C(F)(F)C(F)(F)F)ccc1NC(=O)c1c(Cl)cccc1C(=O)NC(C)C [compound 225]	B (99-90)	A (100)	A (100)
Cc1cc(OC(F)(F)C(F)(F)Br)ccc1NC(=O)c1c(Cl)cccc1C(=O)NC(C)C [compound 229]	D (79-50)	A (100)	A (100)
Cc1cc(OCC(F)(F)C(F)F)ccc1NC(=O)c1c(Cl)cccc1C(=O)NC(C)C [compound 230]	C (89-80)	A (100)	A (100)
Cc1cc(OC(F)F)ccc1NC(=O)c1c(Cl)cccc1C(=O)NC(C)C [compound 236]	A (100)	A (100)	A (100)
Cc1cc(OC(F)(F)C(F)Cl)ccc1NC(=O)c1c(Cl)cccc1C(=O)NC(C)C (stereo not drawn) [compound 241]	B (99-90)	A (100)	A (100)
Cc1cc(OC(F)(F)C(F)C(F)(F)F)ccc1NC(=O)c1c(Cl)cccc1C(=O)NC(C)C (stereo not drawn) [compound 242]	B (99-90)	A (100)	A (100)
Cc1cc(OC(F)(F)C(F)(Br)C(F)(F)F)ccc1NC(=O)c1c(Cl)cccc1C(=O)NC(C)C (stereo not drawn) [compound 243]	A (100)	A (100)	B (99-90)
Cc1cc(OC(F)(F)C(F)F)c(Cl)cc1NC(=O)c1c(Cl)cccc1C(=O)NC(C)C [compound 246]	B (99-90)	A (100)	B (99-90)
Cc1cc(Oc2ccc(C(F)(F)F)cn2)ccc1NC(=O)c1c(Cl)cccc1C(=O)NC(C)C [compound 249]	D (79-50)	A (100)	A (100)
CC(C)NC(=O)c1cccc(Cl)c1C(=O)Nc1ccc(OC(F)F)cc1C(F)(F)F [compound 253]	A (100)	A (100)	C (89-80)
CC(C)NC(=O)c1c(Br)cccc1C(=O)Nc1ccc(C(F)(F)F)cc1 [compound 261]	A (100)	A (100)	D (79-50)
Cc1c(Cl)cccc1NC(=O)c1cccc(Br)c1C(=O)NC(C)C [compound 266]	A (100)	A (100)	A (100)
Cc1cc(Cl)ccc1NC(=O)c1cccc(Br)c1C(=O)NC(C)C [compound 267]	A (100)	A (100)	A (100)
Cc1ccc(Cl)cc1NC(=O)c1cccc(Br)c1C(=O)NC(C)C [compound 268]	A (100)	A (100)	A (100)
Cc1c(Cl)ccc(NC(=O)c2cccc(Br)c2C(=O)NC(C)C)c1C [compound 269]	A (100)	A (100)	A (100)
Cc1ccc(NC(=O)c2cccc(Br)c2C(=O)NC(C)C)c(C)c1Cl [compound 270]	A (100)	A (100)	A (100)
